The record followed here is the OPERA property sets (Mansouri et al. 2018).

Peptide text beside a SMILES is read from it. * marks the point of attachment. NHtBu = CC(C)(C)N*

Details in the first data set: not given
As to `CC(=O)Nc1cccc(OCc2cccc(NC(=N)NC(=N)N)c2)c1`, the log partition coefficient (logP) (as a rule, a log measure of how a compound divides between an organic and an aqueous phase) was determined as 1.82.
Compound `CSc1ccccc1` registered a log partition coefficient (logP) of 2.74.
`ClCc1ccccc1` had a logP of 2.3.
Take `Clc1cccc2c1CCNCC2`: the logP was found to be 2.4.
In turn, `Brc1cccnc1` came in with a log partition coefficient (logP) of 1.6.
Compound `CC(=O)Nc1ccc(C(=O)O)cc1` displayed a lipophilicity (logP) of 1.31.
Take `O=C1Nc2ccccc2C1=O`: the logP is 0.83.
`O=C(Nc1ccc([N+](=O)[O-])cc1)c1cccnc1` showed a logP of 1.82.
For the compound `CC(=O)NC(C)C(=O)NCC(=O)NC(C)C(=O)NC(C)(C)C` (stereo not drawn) (Ac-Ala-Gly-Ala-NHtBu; configuration not given here), the logP is -0.6.
Take `C1COCCOCCOCCO1`: the logP was -0.04.
As for `c1ccc(Sc2cccnc2)cc1`, the logP is 3.15.
The compound `CCCCC#N` yielded a logP of 1.12.
Regarding `CC(=O)Nc1ccc(N(C)C)cc1`, the logP worked out at 1.
The compound `COc1ccc(O)c2nccc(C)c12` came in with a logP of 2.75.
As for `O=C(O)CCCOc1ccc(Cl)cc1Cl`, the logP was found to be 3.53.
The compound `C=C(F)F` showed a logP of 1.24.
Regarding `COc1ccc2cnccc2c1`, the logP stood at 2.22.
In the case of `O=C(O)CCCN1C(=O)C=CC1=O`, the logP is 0.4.
Turning to `Cc1cc2ccccc2cc1C`, the logP was 4.4.
On the same count and under the same terms, the figure for `O=Cc1ccc2ccccc2n1` is 2.14; for `NS(=O)(=O)c1cc2c(cc1C(F)(F)F)NCNS2(=O)=O` it is 0.36.
As to `CCCCCC(=O)OCC(=O)C1(O)CCC2C3CCC4=CC(=O)CCC4(C)C3C(O)CC21C` (configuration not stated), the logP amounted to 4.48.
Consider `O=C(C=Cc1ccccc1)OCC=Cc1ccccc1`, for which the logP was determined as 4.45.
Same read-out and setting: next, `CC(C)c1ccccc1OC(=O)N(C)C`: 2.65; `S=C1CCCO1`: 0.6; `Nc1ccc(CCO)cc1`: 0.1.
Take `NC(=O)Nc1cccc(OCC(=O)O)c1`: the logP turned out to be 0.26. This logP and that of the compound before are within 0.2 log units of each other.
For `Cc1[nH]ncc1[N+](=O)[O-]`, the logP amounted to 1.02.
Regarding `O=Cc1c[nH]c2ccccc12`, the logP worked out at 1.68.
Compound `CCN1CCN(CC)C1=S` showed a logP of 1.13.
On to `N#CCN`, for which the lipophilicity (logP) is -1.37.
`Nc1cccc(Br)c1` returned a logP of 2.1.
Still for that read-out and setting: next, `NC(=O)c1cccc([N+](=O)[O-])c1`: 0.77; `CN(C)C(=O)c1cccs1`: 0.75.
Compound `CC(C)NCC(O)COc1ccccc1` (configuration not stated) yielded a logP of 1.72.
`CN(C)C(=O)C12CC3CC(CC(C3)C1)C2` gave a logP of 2.55.
For the compound `CCOC(=O)c1ccc(O)cc1`, the logP stood at 2.47.
`CCCCOc1ccc(C(=O)O)cc1` had a logP of 3.57.
`CC(=O)c1ccccc1C(=O)O` registered a logP of 0.81.
The compound `COc1ccc(C=CC(=O)O)cc1OC` gave a logP of 2.34.
On the same count and under the same terms, next, `C#C[C@]1(O)CC[C@H]2[C@@H]3CCc4cc(O)ccc4[C@H]3CC[C@@]21C`: 3.67; `CSc1ccc(SC)nn1`: 1.85; `NCCc1cccnc1`: -0.11.
In turn, `O=[N+]([O-])c1ncc[nH]1` yielded a logP of 0.15.
Consider `c1cc2snnc2c2c1CCNC2`, for which the logP came out at 1.35.
With `CCCNC(C)C(=O)Nc1ccccc1C` (configuration not stated), the logP worked out at 2.11.
`C=CCCCCCCC` showed a logP of 5.15.
For the compound `CCOC(=O)C(=Cc1cccc(OCC)c1)C(C)=O`, the logP stood at 2.71.
Compound `O=C1CC(OC(=O)c2ccccc2)N1` (configuration not stated) showed a logP of 1.37.
As to `CCCCCCCCOC(=O)n1cnc(CC(NC(=O)C2CCC(=O)N2)C(=O)N2CCCC2C(N)=O)c1` (configuration not stated), the log partition coefficient (logP) came out at 1.82.
For the compound `CCCCCBr`, the logP amounted to 3.37.
Regarding `CCN1CC(C(O)C(CC2CCCCC2)NC(=O)C(Cc2cnc[nH]2)NC(=O)C(CC(=O)N(C)CCO)Cc2ccccc2)OC1=O` (configuration not stated), the logP was found to be 1.94.
Same read-out and setting: the figure for `CC(=O)N[C@@H](Cc1c[nH]c2ccccc12)C(=O)N[C@@H](C)C(=O)N[C@H](C(N)=O)C(C)C` (Ac-Trp-Ala-Val-NH2) is 0.36; for `C=C(C)C(=O)OCCCC` it is 2.88; for `CN(C)C(N(C)C)=S(I)c1cc(Cl)ccc1Cl` (configuration not stated) it is 0.05.
The same measure, in the same setting: the figure for `O=CNc1ccc([N+](=O)[O-])cc1` is 1.43; for `CCCOc1cccc(C=C(C(=O)OCC)C(=O)OCC)c1` it is 4; for `CCC(C)Cl` (configuration not stated) it is 2.33.
In the case of `c1ccc2c(c1)oc1ccccc12`, the logP turned out to be 4.12.
`C=CCN1CCc2nc(N)sc2CC1`: the logP stood at 1.48.
`O=C(O)C(c1ccccc1)n1cccc1` (configuration not stated) came in with a logP of 1.57.
In the case of `NC(CC(=O)O)c1ccccc1` (configuration not stated), the logP is -1.4.
For the compound `N#CC(C#N)=NNc1ccc(C(=O)CCl)cc1`, the logP came to 2.15.
`CCCC1(CC)C(=O)NC(=O)NC1=O`: the logP amounted to 0.66.
Still for that read-out and setting: the figure for `OCC(Cl)Cl` is 0.37.
In turn, `CCOC(=O)C(F)(F)C(F)(F)F` gave a logP of 2.12.
Same read-out and setting: the figure for `CC(C)c1ccc(NC(=O)N(C)C)cc1` is 2.87; for `NS(=O)(=O)c1ccc2c(c1)S(=O)(=O)NC(CC1CCCC1)N2` (configuration not stated) it is 1.24; for `O=[N+]([O-])c1ccccn1` it is 0.48.
`Oc1ccc(I)cc1` displayed a logP of 2.91.
The compound `FCF` registered a logP of 0.2.
As for `Oc1c(F)c(F)c(F)c(F)c1F`, the logP worked out at 3.23.
The compound `FC(F)(Cl)C(F)(Cl)Cl` showed a log partition coefficient (logP) of 3.16. The logP values of the last two compounds are within 0.2 log units of each other.
`NNC(=O)c1ccnc(-c2ccccc2)c1` displayed a log partition coefficient (logP) of 1.36.
Compound `CN(C)c1ccc2c(c1)C(=O)N(S(C)(=O)=O)C2=O` gave a logP of 1.65.
Same read-out and setting: next, `COC1C(O)C(C)OC(OC2CCC3(C)C(CCC4C3CCC3(C)C4(O)CC(O)C34C=CC(=O)OC4)C2)C1O` (configuration not stated): 0.59; `COC(=O)C12OCC34C(CC5C(C)=C(O)C(=O)CC5(C)C3C(O)C1O)OC(=O)C(OC(=O)C=C(C)C(C)C)C24` (configuration not stated): 1.66; `CC(=O)C(=Cc1ccccc1)C(C)=O`: 1.59.
On to `Cn1cc[nH]c1=S`, for which the logP was -0.34.
In turn, `COc1cc2c(c(OC)c1OC)-c1ccc(=O)c(OC)cc1[C@@H](NC(=O)C(F)(F)F)CC2` showed a logP of 2.08.
In the case of `Cc1n[nH]c(C(=O)N(C)C2CCCCC2)c1[N+](=O)[O-]`, the logP was determined as 1.68.
`Nc1ncnc2[nH]cnc12`: the logP is -0.09.
In the case of `COP(=S)(OC)SCN1C(=O)c2ccccc2C1=O`, the logP worked out at 2.78.
On the same count and under the same terms, the figure for `ONc1ccccc1` is 0.79; for `O=c1[nH]cnc2n[nH]nc12` it is -1.97; for `Nc1cc([N+](=O)[O-])cc([N+](=O)[O-])c1` it is 1.89.
Compound `Cc1ccnc2ccccc12` returned a logP of 2.61.
As for `COCCO`, the logP is -0.77.
For the compound `Brc1cc(Br)c(Br)cc1Br`, the logP came to 5.13.
In the case of `NC(=O)CCCc1cccnc1`, the logP is -0.08.
Compound `CON(C)/N=N/c1ccc(C(N)=O)cc1` returned a logP of 1.19.
In the case of `CCOC(=O)C(=Cc1ccc(O)c(OC)c1)C(=O)OCC`, the lipophilicity (logP) worked out at 2.89.
For the compound `O=[N+]([O-])c1cnc(NC(CO)C(O)CO)cn1` (configuration not stated), the logP was -0.89.
`Ic1ccc2ccccc2n1` displayed a logP of 3.04.
As to `CCN(CC)N=Nc1ccc([N+](=O)[O-])cc1`, the logP was found to be 4.17.
Compound `ClC(Cl)C(Cl)(Cl)Cl` showed a logP of 3.22.
`NC(=O)C(Cl)Cl` showed a logP of 0.19.
For `NC(=O)CBr`, the log partition coefficient (logP) was -0.52.
For the compound `Cc1ncc([N+](=O)[O-])n1CCNC(=O)OCc1ccccc1`, the logP turned out to be 1.69.
Compound `C=CCCC=C` gave a logP of 2.87.
In turn, `CC(C(=O)O)c1ccc(-c2ccccc2)c(F)c1` (configuration not stated) yielded a logP of 4.16.
For `O=C(O)c1ccccc1I`, the logP came to 2.4.
Still for that read-out and setting: the figure for `COC(=O)c1ccc(OC)cc1` is 2.27.
On the same count and under the same terms, the figure for `O=C(O)Cc1cccc(Cl)c1` is 2.09; for `CCOP(=S)(OCC)Oc1cc(C)nc(N(CC)CC)n1` it is 4.85; for `CCN=C=S` it is 1.47.
`Cc1cccc(OC(=O)CNC(=O)c2ccccc2)c1` displayed a log partition coefficient (logP) of 2.72.
Regarding `CC1OC(OC2C(O)CC(OC3C(O)CC(OC4CCC5(C)C(CCC6C5CC(O)C5(C)C(C7=CC(=O)OC7)CCC65O)C4)OC3C)OC2C)CC(OC(=O)C2OC(O)CC(O)C2O)C1O` (configuration not stated), the logP is -1.77.
`CC(=O)C(F)(F)F` registered a logP of 0.2.
Consider `O=[N+]([O-])c1ccc(Cl)cc1`, for which the lipophilicity (logP) turned out to be 2.39.
`O=[N+]([O-])c1ccc(N2CCCCC2)cc1` yielded a logP of 3.26.
Regarding `COc1ccc(C=O)cc1O`, the logP turned out to be 0.97.
Take `Nc1ccccc1Br`: the logP came to 2.11.
As to `CCNC(N)=O`, the logP was -0.74.
On to `N=C(N)NC(=O)Nc1ccc(Cl)cc1`, for which the lipophilicity (logP) amounted to 1.78.
Consider `O=C(Nc1ccn(C2OC(CO)C(O)C2O)c(=O)n1)c1ccccc1` (configuration not stated), for which the logP amounted to 0.3.
Regarding `NC(Cc1c[nH]c2cc(F)ccc12)C(=O)O` (configuration not stated), the log partition coefficient (logP) was -0.78.
In the case of `C=CNP(=O)(NC=C)NC(=O)c1cccc(OC)c1`, the logP worked out at 0.86.
Take `O=C(Cc1cccs1)N[C@@H]1C(=O)N2C(C(=O)[O-])=C(C[n+]3ccccc3)CS[C@H]12`: the logP was -1.62.
Turning to `CS(=O)c1ccccc1` (configuration not stated), the logP was determined as 0.55.
Compound `C[C@]12CC[C@H](O)C[C@H]1CC[C@@H]1[C@@H]2CC[C@]2(C)[C@@H](C3=CC(=O)OC3)CC[C@]12O` came in with a logP of 2.64.
Consider `O=[N+]([O-])C=Cc1ccsc1`, for which the logP is 1.94.
On to `CC1=C(N2CC2)C(=O)C(CCOC(N)=O)=C(N2CC2)C1=O`, for which the lipophilicity (logP) was found to be 0.16.
For the compound `Cc1cccc(OCc2ccccc2)n1`, the lipophilicity (logP) amounted to 3.43.
`O=C1C=CC(=O)c2ccccc21` gave a logP of 1.71.
Turning to `NC(=O)c1cc(N2CC2)c([N+](=O)[O-])cc1[N+](=O)[O-]`, the logP was -0.02.
With `CC1=C(O)OC2CC(C)C3C=CC(=O)C3(C)C(O)C12` (configuration not stated), the logP was 1.13.
The same measure, in the same setting: next, `COP(=O)(OC)OC`: -0.65; `CN1C(=O)c2ccccc2C1=O`: 1.31.
As for `CNC(=O)OCc1c2c(n3c1C(OC(C)=O)CC3)C(=O)C=C(OC)C2=O` (configuration not stated), the logP turned out to be 1.19.
On the same count and under the same terms, the figure for `NS(=O)(=O)c1nc2ccc(Cl)cc2s1` is 2.1.

Staying with this data set, now noted: pH 5.0.
With `N=C(NCCCCCCNC(=N)NC(=N)Nc1ccc(Cl)cc1)NC(=N)Nc1ccc(Cl)cc1`, the logD (usually lipophilicity at a set pH, counting ionised and neutral species) is 0.08.
